Source: patent publication US8410078B2, “Composition and methods to treat cardiac diseases” (University of Connecticut, priority 2006, dated 2013)

How the values were obtained:
[1] = system: cardiac P2X receptor; experiment: Whole-cell voltage clamp of P2 agonist-induced current in WT ventricular myocytes; assay type: cell-based, mouse; settings: for Inhibition of the 2-meSATP-induced current by P2X receptor antagonists: PPADS 100 μM, NF449 300 nM, Brilliant Blue G 5 μM, ramp −100 to +50 mV
Excerpt: Mice displaying the CSQ model of severe cardiomyopathy and heart failure were bred and maintained by methods known in the art. The CSQ transgenic (TG) mice were originally provided by Dr. Larry Jones (Krannert Institute of Cardiology, Indiana University School of Medicine, Indiana), and developed hypertrophy followed by a lethal heart failure phenotype with death near the age of 3 months. Ventricular myocytes were obtained from 3-month old wild type (WT) and CSQ mice of either sex (26 WT, 47 TG) by an enzymatic dissociation procedure. Briefly, the hearts were rapidly excised from mice that had been anesthetized with pentobarbital and treated with 1000 Units of heparin. The aorta was cannulated and the heart perfused in a Langendorff apparatus with oxygenated (95% O2/5% CO2) Ca^2+-free solution (37° C.) for 5 minutes at a rate of 2.5 ml/min. The solution composition was: 126 mM NaCl, 4.4 mM KCl, 1.0 mM MgCl2, 18 mM NaHCO3, 11 mM Glucose, 4 mM HEPES, and 3 mM BDM (2,3-butanedione monoxime), (pH 7.3 adjusted with NaOH). Thereafter, the perfusing solution was changed to that containing 25 μM CaCl2 and liberase (70 μg/ml, Roche Molecular Biochemicals, Inc.) for 8-10 minutes. Cells were sedimented by gravity for 10-15 minutes and the pellet was resuspended in 200 μM Ca^2+-containing Tyrode's solution (containing 3 mM BDM), allowed to settle for 30 minutes at room temperature, and suspended with Tyrode's solution containing: 135 mM NaCl, 5.4 mM KCl, 1.0 mM CaCl2, 1.0 mM MgCl2, 10 mM HEPES and 10 mM dextrose (pH 7.4 adjusted with NaOH). The experiments were carried out at room temperature (22-23° C.) and were completed within 4-6 hours after myocyte isolation.
The whole cell patch-clamp technique was used for these experiments. Electrodes were prepared from borosilicate glass pipettes (1.2 mm i.d.) with a two step pulling procedure and filled with pipette solution. The pipette was connected via an Ag—AgCl wire to the head stage of an amplifier (List EPC-7, Medical Systems, Greenvale, N.Y.) controlled by a computer and Axon pClamp™ software. For voltage clamp experiments, the electrodes were filled with a solution containing: 135 mM cesium aspartate, 5 mM NaCl, 5 mM Mg2ATP, 10 mM HEPES, and 10 mM EGTA (pH 7.3 adjusted with CsOH) with or without 2 mM GDPβS. Electrode resistances were 2-4 MΩ. As soon as electrical contact was established, the superfusion medium was changed to a modified Tyrode's solution (5.4 mM KCl was omitted and 10 mM CsCl and 5 μM ouabain were added to Tyrode's solution to block K^+ currents and the Na/K pump current, respectively). In quantifying the P2 agonist-induced current, the Tyrode's solution contained the indicated concentration of each agent. In studying the effect of a P2 receptor antagonist, both agonist and antagonist were co-applied at the indicated concentrations. The voltage clamp protocol used was a ramp voltage protocol from −100 mV holding potential to +50 mV. The ramp protocol was applied to cells at 20 s intervals for 1 minute. Three current traces from −100 mV to 50 mV were averaged to construct the I-V relationship.

[2] = target: T1, rat 5′-ectonucleotidase (Rattus norvegicus, UniProt P21588); settings: cited from earlier work
T1 sequence (P21588 29-551): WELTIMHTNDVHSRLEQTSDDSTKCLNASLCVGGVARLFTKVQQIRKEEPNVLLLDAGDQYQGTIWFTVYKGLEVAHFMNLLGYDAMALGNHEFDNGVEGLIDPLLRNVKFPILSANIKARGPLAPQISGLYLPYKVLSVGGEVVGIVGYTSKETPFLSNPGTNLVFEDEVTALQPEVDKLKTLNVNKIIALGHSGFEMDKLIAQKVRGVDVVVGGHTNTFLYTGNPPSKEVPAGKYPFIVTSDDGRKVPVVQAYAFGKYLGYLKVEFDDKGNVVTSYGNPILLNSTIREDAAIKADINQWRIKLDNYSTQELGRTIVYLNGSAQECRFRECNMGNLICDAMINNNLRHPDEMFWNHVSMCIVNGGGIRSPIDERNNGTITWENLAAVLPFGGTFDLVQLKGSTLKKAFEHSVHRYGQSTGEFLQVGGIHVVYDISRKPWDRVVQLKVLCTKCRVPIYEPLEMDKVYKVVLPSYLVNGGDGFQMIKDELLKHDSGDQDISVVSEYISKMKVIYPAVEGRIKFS

[3] = system: Binary P2X4 receptor/CSQ transgenic mice; experiment: Lifespan of binary P2X4 receptor/CSQ transgenic mice given drug in drinking water; assay type: in vivo, mouse; settings: 2 mg/ml in drinking water
Experimental: Metoprolol, a beta-adrenergic receptor blocker, was dissolved in drinking water at a concentration of 2 mg/ml. Binary P2X4 receptor/CSQ transgenic mice were fed either regular drinking water (n=8 mice) or drinking water containing the metoprolol (n=8 mice). […] Because overexpression of the P2X4 receptor rescues calsequestrin mice in a similar manner to MRS2339, administration of a beta blocker such as metoprolol with MRS2339 or another P2X receptor agonist should synergistically increase lifespan.

[4] = system: P2X4R Tg myocytes; experiment: Cyclic AMP enzymatic immunoassay in P2X4R Tg myocytes; assay type: cell-based, mouse; settings: 10 minutes, 2-meSATP at 10 μM
Experimental: Cyclic AMP was determined with an enzymatic immuno-assay kit (EIA, Direct Biotrak EIA kit) according to manufacturer's instructions. The method has been used to estimate cAMP level in dispersed mammalian cardiac ventricular myocytes. In brief, 3-month P2X4R Tg myocytes were isolated and plated in laminin-coated 96 well plate at a density of 1000 cells/well, equilibrated for 1 hour at 37° C., incubated with either phosphate-buffered saline (pH=7.4) or 10 μM 2-meSATP for 10 minutes, and processed for acetylation and subsequent cAMP EIA. cAMP levels were normalized to proteins in each individual well.

For `CSc1nc(N)c2ncn([C@@H]3O[C@H](COP(=O)(O)OP(=O)(O)O)[C@@H](O)[C@H]3O)c2n1` [2-meSADP, 2-methylthioADP], the Induction of current ([1]; 3 μM, myocytes with a full response to 3 μM 2-meSATP) was “failed to induce any current”.
For `Nc1ncnc2c1ncn2C1C(O)C(O)C2(COP(=O)(O)O)CC12` (stereo not drawn) [(N) methanocarba AMP], the “Rate of hydrolysis relative to the rate of hydrolysis of AMP” value [2] is given as 0.14%.
For `CCOc1ccc(Nc2ccc(/C(=C3C=C/C(=[N+](/CC)Cc4cccc(S(=O)(=O)[O-])c4)C=C/3C)c3ccc(N(CC)Cc4cccc(S(=O)(=O)[O-])c4)cc3C)cc2)cc1.[Na+]` [Brilliant Blue G], the “Inhibition of the 2-meSATP-induced current by P2X receptor antagonists” value (“Inhibition” for short) ([1]; 2-meSATP 3 μM) was “very little inhibitory effect”.
In the case of `CNc1nc(I)nc2c1ncn2[C@H]1C[C@H](OP(=O)(O)O)[C@]2(COP(=O)(O)O)C[C@H]12` [MRS2500, (1′R,2′S,4′S,5′S)-4-(2-iodo-6-methylamino-purin-9-yl)-1-[(phosphate)-methyl]-2-(phosphate)-bicyclo[3.1.0]hexane], the “Block of the current evoked by 2-meSATP” value ([1]; MRS2500 1 μM, 2-meSATP 3 μM, WT myocytes) is reported as “could not block” and the “Block of the current evoked by MRS2339” value ([1]; data not shown) is reported as “could not block”.
Molecule `COCCc1ccc(OCC(O)CNC(C)C)cc1` (stereo not drawn) [Metoprolol] has a Median lifespan [3] of 491 days.
For `O=C(Nc1cc(C(=O)Nc2ccc(S(=O)(=O)O)cc2S(=O)(=O)O)cc(C(=O)Nc2ccc(S(=O)(=O)O)cc2S(=O)(=O)O)c1)Nc1cc(C(=O)Nc2ccc(S(=O)(=O)O)cc2S(=O)(=O)O)cc(C(=O)Nc2ccc(S(=O)(=O)O)cc2S(=O)(=O)O)c1` [NF449, 4,4′,4″,4′″-[carbonylbis(imino-5,1,3-benzenetriyl-bis(carbonylimino))]tetrakis-1,3-benzenedisulfonic acid], the “Inhibition” value ([1]; 2-meSATP 3 μM) was “very little inhibitory effect”.
In the case of `Cc1nc(N=Nc2ccc(S(=O)(=O)O)cc2S(=O)(=O)O)c(COP(=O)(O)O)c(C=O)c1O` [PPADS], the “Inhibition” value ([1]; 2-meSATP 3 μM) is reported as “partially inhibit”.
In the case of `CC(C)NCC(O)c1ccc(O)c(O)c1` (stereo not drawn) [isoproterenol], the “Intracellular cyclic AMP level” value [4] is reported as 16.6 ± 1.53 pmol/mg.
